Test systems include A549 NSCLC; DMS 114 small cell lung; EKVX NSCLC; NCI-H460 lung; SF-268 CNS; SF-295 CNS; SK-OV-3 ovarian; UACC-62 melanoma; LXFL 529 NSCLC; PC-3 prostate.
What all share (assay): NCI-60 cell line screen, 48 h

Values joined by “and” are separate entries in the source; they are usually repeats but may differ in a detail not shown here. Equal values may be shown once.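 All cell lines were grown in 96-well plates and treated with compound for 48 hours. GI50 = concentration required for 50% inhibition of growth. At the TGI there is no net growth.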 Where only a bound is given, the exact number is not on record here.

On to `CCCCC[C@@H]1CCCC2NC(CCCCCO[Si](c3ccccc3)(c3ccccc3)C(C)(C)C)CCC21` (some centres undefined), for which the TGI in the assay on A549 NSCLC amounted to 33.9 µM; in the assay with DMS 114 small cell lung, 28.1 µM; in the assay with EKVX NSCLC, 34.3 µM; in the assay with NCI-H460 lung it was 31.7 µM; in the assay with SF-268 CNS, 38.2 µM; in the assay on SF-295 CNS, 31.3 µM. The TGI was determined as 36.8 µM in the assay with SK-OV-3 ovarian and 34.9 µM in the assay with UACC-62 melanoma.
For the molecule `N.N.N.N.N#N.N#N.[Cl-].[Os+6]`, the GI50 in the assay on A549 NSCLC, with EKVX NSCLC, in the assay with LXFL 529 NSCLC, with NCI-H460 lung, in the assay on SF-268 CNS and in the assay with SF-295 CNS was over 100 µM in each case. In addition, the GI50 in the assay with UACC-62 melanoma is over 100 µM. Moreover, the TGI in the assay on A549 NSCLC, in the assay with EKVX NSCLC, in the assay with LXFL 529 NSCLC, in the assay with NCI-H460 lung, in the assay with SF-268 CNS and in the assay on SF-295 CNS was over 100 µM each time. The TGI in the assay on UACC-62 melanoma was over 100 µM.
Turning to `COCN1COCN(C)C1=O`, the TGI in the assay with A549 NSCLC, in the assay with DMS 114 small cell lung, in the assay on EKVX NSCLC, in the assay with NCI-H460 lung, in the assay on SF-268 CNS and in the assay with SF-295 CNS was over 100 µM throughout. The TGI with SK-OV-3 ovarian and with UACC-62 melanoma was over 100 µM in each case.
On to `CN(C)CCNC(=O)c1ccc2c(c1)oc1cc3ccccc3c(=O)n12`, for which the GI50 in the assay on A549 NSCLC is 12.3 µM; in the assay with EKVX NSCLC, 18.1 µM; in the assay on NCI-H460 lung, 7.5 µM; with PC-3 prostate it was 28.7 µM; in the assay on SF-268 CNS it was 15.4 µM; in the assay on SF-295 CNS, 14.2 µM. Besides, the GI50 in the assay on SK-OV-3 ovarian was 13.8 µM; in the assay on UACC-62 melanoma it was 17.4 µM. In addition, the TGI in the assay on A549 NSCLC was 27.5 µM; in the assay on EKVX NSCLC it was 36.6 µM; in the assay on NCI-H460 lung it was 25.7 µM; in the assay with PC-3 prostate, over 100 µM; with SF-268 CNS it was 31.7 µM; with SF-295 CNS, 32.5 µM. Further, the TGI with SK-OV-3 ovarian is 30.9 µM; in the assay on UACC-62 melanoma, 33.8 µM.
Turning to `COC(=O)c1csc(-c2csc(CCNC(=O)OC(C)(C)C)n2)n1`, the TGI with A549 NSCLC, in the assay with EKVX NSCLC, in the assay on NCI-H460 lung, in the assay with PC-3 prostate, in the assay with SF-268 CNS and with SF-295 CNS was over 100 µM in each case. In addition, the TGI in the assay on SK-OV-3 ovarian and in the assay on UACC-62 melanoma was over 100 µM throughout.
As for `COc1ccc(-c2cn(C)c3c2-n2cccc2C3=O)cc1O`, the GI50 is 18.1 µM in the assay on A549 NSCLC; 14.6 µM in the assay on EKVX NSCLC; 3.06 µM in the assay on NCI-H460 lung; 6.09 µM in the assay with PC-3 prostate; 11.4 µM in the assay on SF-268 CNS; 5.22 µM in the assay with SF-295 CNS. Besides, the results for the GI50 in the assay on SK-OV-3 ovarian and with UACC-62 melanoma were 5.86 µM and 3.27 µM, respectively. In addition, the TGI in the assay on A549 NSCLC is 54.1 µM; in the assay on EKVX NSCLC, 51.5 µM; in the assay with NCI-H460 lung, 20 µM; in the assay with PC-3 prostate, over 100 µM; in the assay on SF-268 CNS, 50.5 µM; with SF-295 CNS, 21.3 µM. Further, the TGI was 94.7 µM with SK-OV-3 ovarian and 12.2 µM in the assay on UACC-62 melanoma.
As for `CCC/C=C/C=C/C(=O)OC1/C(=C/C(=O)OC)CC2CC(C(C)O)OC(=O)CC(O)CC3CC(OC(C)=O)C(C)(C)C(O)(CC4C/C(=C/C(=O)OC)CC(/C=C/C(C)(C)C1(O)O2)O4)O3` (centres undefined), the GI50 in the assay on A549 NSCLC was 2.58 µM and 5.95 µM and > 12.5 µM; with DMS 114 small cell lung it was > 10900 nM and 2920 nM; in the assay with EKVX NSCLC, > 10.9 µM and 5.21 µM and > 12.5 µM; with NCI-H460 lung it was 9.82 µM and 2.81 µM and > 12.5 µM; with PC-3 prostate it was over 12.5 µM; with SF-268 CNS, 6.18 µM and > 12.5 µM. The GI50 with SF-295 CNS is > 10.9 µM and 6.77 µM and > 12.5 µM; with SK-OV-3 ovarian, > 10.9 µM and 8.51 µM and > 12.5 µM; in the assay with UACC-62 melanoma, > 10.9 µM and 5.26 µM and > 12.5 µM. The TGI was 8.17 µM and 11 µM and > 12.5 µM with A549 NSCLC; > 10.9 µM and 8.97 µM with DMS 114 small cell lung; > 10.9 µM and 9.53 µM and > 12.5 µM with EKVX NSCLC; 10.9 µM and 11 µM and > 12.5 µM with NCI-H460 lung; 11 µM and > 12.5 µM in the assay with PC-3 prostate; 9.13 µM and 11 µM and > 12.5 µM in the assay on SF-268 CNS. The TGI with SF-295 CNS is > 10.9 µM and 11 µM and > 12.5 µM; in the assay on SK-OV-3 ovarian, > 10.9 µM and 11 µM and > 12.5 µM; with UACC-62 melanoma it was > 10.9 µM and 11 µM and > 12.5 µM.
Turning to `O=C1OC(c2ccc([N+](=O)[O-])cc2)=N/C1=C\c1ccc(Cl)cc1`, the TGI with A549 NSCLC, with EKVX NSCLC, in the assay on NCI-H460 lung, with PC-3 prostate, with SF-268 CNS and in the assay on SF-295 CNS was over 100 µM in each case. Moreover, the TGI in the assay on SK-OV-3 ovarian and in the assay with UACC-62 melanoma was over 100 µM each time.
As for `O=C(O)CCCN1C(=O)/C(=C/C(Cl)=C/c2ccccc2)SC1=S`, the GI50 in the assay on A549 NSCLC is 3.02 µM; in the assay on EKVX NSCLC, 2.21 µM; in the assay with NCI-H460 lung, 2.47 µM; in the assay on PC-3 prostate it was 2.23 µM; in the assay with SF-268 CNS it was 2.5 µM; in the assay with SF-295 CNS, 2.57 µM. For the same molecule, the GI50 in the assay on SK-OV-3 ovarian was 6.24 µM; in the assay with UACC-62 melanoma, 1.47 µM. Further, the TGI amounted to 11.9 µM with A549 NSCLC; 5.91 µM in the assay with EKVX NSCLC; 6.76 µM in the assay with NCI-H460 lung; 10.3 µM with PC-3 prostate; 7.41 µM in the assay with SF-268 CNS; 7.16 µM in the assay on SF-295 CNS. Besides, the values for the TGI with SK-OV-3 ovarian and in the assay with UACC-62 melanoma were 19 µM and 3.62 µM, respectively.
As for `O=C(CSSCC(=O)c1ccc(Cl)cc1)c1ccc(Cl)cc1`, the GI50 is 10.4 µM in the assay with A549 NSCLC; 9.8 µM in the assay on EKVX NSCLC; 3.35 µM in the assay on NCI-H460 lung; 6.12 µM in the assay with PC-3 prostate; 4.3 µM with SF-268 CNS; 2.58 µM in the assay on SF-295 CNS. Also, the values for the GI50 in the assay with SK-OV-3 ovarian and with UACC-62 melanoma were 4.34 µM and 3.1 µM, respectively. The TGI was 43.2 µM with A549 NSCLC; over 100 µM in the assay on EKVX NSCLC; 26.9 µM in the assay on NCI-H460 lung; 30.5 µM in the assay on PC-3 prostate; 64.7 µM in the assay with SF-268 CNS; 15.2 µM in the assay on SF-295 CNS. Moreover, the TGI in the assay on SK-OV-3 ovarian worked out at 22.4 µM; in the assay on UACC-62 melanoma it was 14.5 µM.
Consider `O=[N+]([O-])c1ccc(Sc2cccc[n+]2[O-])c2nonc12`, for which the GI50 is 5.61 µM in the assay with A549 NSCLC; 9.59 µM in the assay on EKVX NSCLC; 3.64 µM in the assay with NCI-H460 lung; 2.6 µM in the assay with PC-3 prostate; 5.27 µM in the assay with SF-268 CNS; 3.37 µM in the assay with SF-295 CNS. The GI50 was 30 µM in the assay on SK-OV-3 ovarian and 4.58 µM in the assay on UACC-62 melanoma. For the same molecule, the TGI is over 57.2 µM with A549 NSCLC; 31.7 µM in the assay with EKVX NSCLC; 25.2 µM in the assay with NCI-H460 lung; 13 µM in the assay on PC-3 prostate; 21.1 µM in the assay with SF-268 CNS; 43.7 µM with SF-295 CNS. Further, the TGI is over 100 µM in the assay on SK-OV-3 ovarian and 22.6 µM with UACC-62 melanoma.
